The target in the experiment is T1, Integrin alpha-4/beta-7 (Homo sapiens, UniProt P13612+P26010).
T1 sequence (P13612 whole entry): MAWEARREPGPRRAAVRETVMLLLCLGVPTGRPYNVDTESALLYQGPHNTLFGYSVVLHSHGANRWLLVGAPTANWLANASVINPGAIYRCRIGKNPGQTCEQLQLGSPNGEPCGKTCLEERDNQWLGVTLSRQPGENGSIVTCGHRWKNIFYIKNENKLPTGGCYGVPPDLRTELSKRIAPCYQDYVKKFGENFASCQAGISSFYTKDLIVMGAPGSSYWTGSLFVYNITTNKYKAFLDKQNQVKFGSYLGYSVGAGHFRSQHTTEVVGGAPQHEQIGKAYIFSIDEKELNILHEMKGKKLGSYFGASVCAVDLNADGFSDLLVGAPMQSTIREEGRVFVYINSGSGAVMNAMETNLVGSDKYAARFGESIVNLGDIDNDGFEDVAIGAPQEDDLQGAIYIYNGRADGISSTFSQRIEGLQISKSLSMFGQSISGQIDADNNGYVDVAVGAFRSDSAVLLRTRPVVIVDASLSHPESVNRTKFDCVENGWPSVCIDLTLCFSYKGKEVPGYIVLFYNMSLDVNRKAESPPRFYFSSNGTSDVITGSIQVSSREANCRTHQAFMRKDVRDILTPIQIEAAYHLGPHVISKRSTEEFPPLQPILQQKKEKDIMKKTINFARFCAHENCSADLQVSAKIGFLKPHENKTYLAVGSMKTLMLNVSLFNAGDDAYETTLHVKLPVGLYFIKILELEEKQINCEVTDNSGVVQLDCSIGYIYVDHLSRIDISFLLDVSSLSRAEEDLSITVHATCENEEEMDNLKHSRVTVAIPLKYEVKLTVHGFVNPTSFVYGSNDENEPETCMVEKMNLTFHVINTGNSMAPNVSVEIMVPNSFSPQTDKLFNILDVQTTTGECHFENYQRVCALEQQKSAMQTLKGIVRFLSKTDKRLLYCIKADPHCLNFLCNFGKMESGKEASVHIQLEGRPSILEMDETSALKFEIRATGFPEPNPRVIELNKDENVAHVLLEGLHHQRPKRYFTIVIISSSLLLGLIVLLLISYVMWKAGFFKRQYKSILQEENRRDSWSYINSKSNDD
T1 sequence (P26010 whole entry): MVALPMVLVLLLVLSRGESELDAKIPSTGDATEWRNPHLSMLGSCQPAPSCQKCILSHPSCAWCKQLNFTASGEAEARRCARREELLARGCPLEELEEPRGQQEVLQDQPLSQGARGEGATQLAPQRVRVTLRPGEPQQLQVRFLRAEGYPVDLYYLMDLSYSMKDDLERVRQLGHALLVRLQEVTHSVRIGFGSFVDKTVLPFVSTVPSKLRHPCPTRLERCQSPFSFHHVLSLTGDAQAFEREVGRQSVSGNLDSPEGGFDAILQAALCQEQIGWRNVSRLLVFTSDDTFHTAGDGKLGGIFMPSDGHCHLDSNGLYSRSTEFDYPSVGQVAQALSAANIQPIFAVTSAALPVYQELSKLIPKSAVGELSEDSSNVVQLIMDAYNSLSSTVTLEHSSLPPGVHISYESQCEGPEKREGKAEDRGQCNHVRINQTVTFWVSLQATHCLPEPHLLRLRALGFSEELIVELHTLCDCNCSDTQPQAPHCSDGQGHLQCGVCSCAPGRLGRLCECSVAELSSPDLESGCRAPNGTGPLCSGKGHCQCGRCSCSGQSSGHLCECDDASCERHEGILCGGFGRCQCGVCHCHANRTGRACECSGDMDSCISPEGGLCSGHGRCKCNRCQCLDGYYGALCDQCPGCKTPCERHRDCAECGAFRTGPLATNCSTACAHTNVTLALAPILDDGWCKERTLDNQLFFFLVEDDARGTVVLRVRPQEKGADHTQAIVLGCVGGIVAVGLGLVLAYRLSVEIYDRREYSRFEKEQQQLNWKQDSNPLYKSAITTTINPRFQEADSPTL
In words: K562 Cell Adhesion Assay (alpha4beta7 Mediated Adhesion/MAdCAM-1). Particulars: pH 7.4; 23 °C. The method, then: M2 anti-FLAG antibody coated 96-well plates were coated with recombinant FLAG-hMAdCAM-1 contained in Dulbecco PBS. The compounds to be tested were added. Stably transfected K562 cells expressing human alpha4beta7 integrin that had been labeled with […] fluorescein diacetate succinimidyl ester (CFDA-SE) were added to each well and allowed to adhere for 1 h at room temperature. Plates were washed, and then cells were lysed. The plate was read on a 96-well fluorescent plate reader at 485 nm excitation and 530 nm emission.

`O=C(O)[C@H](Cc1ccc(N2C(=O)c3ccccc3C2=O)cc1)NC(=O)[C@@H]1C2CCC(CC2)N1S(=O)(=O)c1ccccc1` returned an IC50 of 110 nM. Then `O=C(Nc1ccc(C[C@H](NC(=O)[C@@H]2C3CCC(CC3)N2S(=O)(=O)c2ccccc2)C(=O)O)cc1)c1ccncc1` [(2S)-2-{[(3S)-2-(benzenesulfonyl)-2-azabicyclo[2.2.2]octan-3-yl]formamido}-3-[4-(pyridine-4-amido)phenyl]propanoic acid], with 120 nM; and `O=C(Nc1ccc(C[C@H](NC(=O)[C@@H]2C3CCC(CC3)N2S(=O)(=O)c2ccccc2)C(=O)O)cc1)c1cc(Cl)nc(Cl)c1` [(2S)-2-{[(3S)-2-(benzenesulfonyl)-2-azabicyclo[2.2.2]octan-3-yl]formamido}-3-{4-[(2,6-dichloropyridine-4-)amido]phenyl}propanoic acid], with 46 nM.

These data come from BindingDB's records for doi:10.1016/j.bmc.2006.01.067 (Johnson & Johnson Pharmaceutical, 2006).
